# Reference: PMC9519446, “Discovery of an Orally Active Benzoxaborole Prodrug Effective in the Treatment of Chagas Disease in Non-human Primates” (Nature microbiology, 2022)
# Where “and” joins values, the source holds several entries; their conditions need not be identical. Equal entries are not always repeated.
# Experiment: NHP health screening: hematology (CBC)
# Type: in vivo, rhesus macaques (Macaca mulatta)
# [1] = treated female macaques, post-dosing bleed, Mean
# [2] = treated macaques, end of study bleed, individual animals
# [3] = treated macaques, mid-dosing bleed, individual animals
# Experimental: Under light-anesthesia/sedation, peripheral blood samples were collected from each animal prior to treatment and at 7 time points following. Blood analysis (CBC and serum chemistry assays) and physical exams to evaluate the health of the study animals were performed on each animal prior to the beginning of the study and also at three time points during the treatment protocol (see Supplementary data).
structure (smiles),measurement,setting,value
Cc1c(C(=O)N[C@H](C(=O)OCC2CCOCC2)C(C)C)ccc2c1B(O)OC2 [AN15368],Lymp,[1],2.497 10^3/µL
same,Mch,[1],23.6944 Pgs
same,Mchc,[1],32.2333 G/Dl
same,Mcv,[1],73.5333 fL
same,Mono,[1],0.2561 10^3/µL
same,Mpv,[1],7.553 fL
same,Neut,[1],2.507 10^3/µL
same,Plt,[1],330.353 10^3/µL
same,Rbc,[1],5.521 10^6/µL
same,Rdw,[1],12.4778%
same,Wbc,[1],5.361 10^3/µL
same,Baso,[2],0.01 10^3/µL and 0.02 10^3/µL and 0 10^3/µL
same,Eos,[2],0.07 10^3/µL and 0.12 10^3/µL and 0.02 10^3/µL and 0.06 10^3/µL and 0.17 10^3/µL and 0.01 10^3/µL and 0.05 10^3/µL and 0.21 10^3/µL and 0.16 10^3/µL and 0.03 10^3/µL
same,Hct,[2],39.5% and 45.3% and 41.2% and 45.7% and 43.1% and 42.5% and 44.2% and 44% and 41.8% and 40.4% and 42.9% and 44.8% and 39.8%
same,Hgb,[2],11.9 G/Dl and 14.7 G/Dl and 12.8 G/Dl and 14.6 G/Dl and 13.3 G/Dl and 13.2 G/Dl and 13.6 G/Dl and 13.7 G/Dl and 13.1 G/Dl and 13 G/Dl and 12.9 G/Dl and 13.4 G/Dl and 12.3 G/Dl
same,Lymp,[2],1.75 10^3/µL and 3.93 10^3/µL and 1.62 10^3/µL and 3.5 10^3/µL and 2.42 10^3/µL and 0.76 10^3/µL and 1.4 10^3/µL and 2.46 10^3/µL and 2.32 10^3/µL and 1.59 10^3/µL and 0.91 10^3/µL and 2.37 10^3/µL and 1.53 10^3/µL and 1.63 10^3/µL
same,Mch,[2],21.9 Pgs and 22.2 Pgs and 23.6 Pgs and 24.2 Pgs and 22.7 Pgs and 21.7 Pgs and 21.5 Pgs and 23.8 Pgs and 22.4 Pgs and 22.3 Pgs and 22.5 Pgs and 22.9 Pgs
same,Mchc,[2],30.1 G/Dl and 32.5 G/Dl and 31.1 G/Dl and 31.9 G/Dl and 30.9 G/Dl and 30.8 G/Dl and 29.6 G/Dl and 31.6 G/Dl and 32.2 G/Dl and 29.9 G/Dl
same,Mcv,[2],72.3 fL and 68.2 fL and 75.6 fL and 75.7 fL and 73.4 fL and 69.9 fL and 73.5 fL and 73.1 fL and 75.2 fL and 69.2 fL and 74.1 fL and 75.4 fL and 74.4 fL
same,Mono,[2],0.25 10^3/µL and 0.23 10^3/µL and 0.17 10^3/µL and 0.37 10^3/µL and 0.36 10^3/µL and 0.48 10^3/µL and 0.3 10^3/µL and 0.21 10^3/µL and 0.2 10^3/µL and 0.44 10^3/µL and 0.26 10^3/µL and 0.29 10^3/µL and 0.12 10^3/µL
same,Mpv,[2],6.3 fL and 7.4 fL and 8.1 fL and 9.7 fL and 8.4 fL and 7 fL and 6.5 fL and 7.9 fL and 7.2 fL and 6.9 fL and 7.3 fL and 6.4 fL
same,Neut,[2],1.44 10^3/µL and 1.12 10^3/µL and 1.09 10^3/µL and 1.69 10^3/µL and 4.26 10^3/µL and 8.57 10^3/µL and 5.95 10^3/µL and 2.2 10^3/µL and 1.94 10^3/µL and 1.95 10^3/µL and 8.94 10^3/µL and 3.94 10^3/µL and 6.95 10^3/µL and 1.75 10^3/µL
same,Plt,[2],418 10^3/µL and 361 10^3/µL and 262 10^3/µL and 246 10^3/µL and 276 10^3/µL and 221 10^3/µL and 490 10^3/µL and 360 10^3/µL and 283 10^3/µL and 257 10^3/µL and 336 10^3/µL and 367 10^3/µL and 446 10^3/µL and 324 10^3/µL
same,Rbc,[2],5.46 10^6/µL and 6.64 10^6/µL and 5.45 10^6/µL and 6.04 10^6/µL and 5.87 10^6/µL and 6.08 10^6/µL and 6.01 10^6/µL and 6.02 10^6/µL and 6.11 10^6/µL and 5.56 10^6/µL and 5.84 10^6/µL and 5.79 10^6/µL and 5.94 10^6/µL and 5.35 10^6/µL
same,Rdw,[2],13.4% and 11.4% and 12.4% and 11.5% and 12.2% and 12.3% and 12.8% and 11.8%
same,Wbc,[2],3.51 10^3/µL and 5.42 10^3/µL and 2.91 10^3/µL and 5.63 10^3/µL and 7.21 10^3/µL and 9.83 10^3/µL and 7.73 10^3/µL and 5.19 10^3/µL and 4.54 10^3/µL and 3.78 10^3/µL and 10.31 10^3/µL and 6.74 10^3/µL and 8.9 10^3/µL and 3.54 10^3/µL
same,Baso,[3],0.01 10^3/µL and 0.02 10^3/µL and 0 10^3/µL
same,Eos,[3],0.07 10^3/µL and 0.09 10^3/µL and 0.04 10^3/µL and 0.06 10^3/µL and 0.16 10^3/µL and 0.08 10^3/µL and 0.05 10^3/µL and 0.18 10^3/µL and 0.19 10^3/µL and 0.2 10^3/µL and 0.02 10^3/µL and 0.26 10^3/µL
same,Hct,[3],41.2% and 42.7% and 40.7% and 46.1% and 39.7% and 43.4% and 40% and 40.3% and 41.5% and 41.9% and 42% and 39.6% and 43.3% and 43.7% and 42.6% and 38.2% and 38.9% and 39.9%
